Laboratory results reported in patent US20160205931A1, “SEX PHEROMONE DERIVATIVES, AND METHODS AND USES THEREOF” (Her Majesty the Queen in Right of Canada, as rep. by the …, priority 2015, published 2016).
Values belong to the molecule of their own block, whether it stands above or below them.

Columns and labels:
[1] = test system: male and female EAB antennae; experiment: Electroantennography (EAG), puff technique; design: species or system Agrilus planipennis; conditions: for electroantennogram activity with male or female EABs: compared with controls / with the (3Z)- and (3E)-lactones
Experimental: Electroantennogram analyses (EAG) were conducted using methods and equipment generally described by Silk et al. in 2007 (Silk P J, et al (2007) Evidence for a male-produced pheromone in Tetropium fuscum (F.) (Coleoptera: Cerambycidae). Naturwissenschaften 94: 697-701). Antennae were excised close to the head and mounted using electrode gel (Spectra 360 electrode gel; Parker, Fairfield, N.J., USA) on an EAG probe (gold) for electrical contact. EAG signals were recorded using Syntech recording and analysis software v. 2.6 (Syntech, Hilversum, The Netherlands).
The (3Z)- and (3E)-lactones, and dodecan-12-olide were tested using the puff technique described by Silk et al. in 2011 (Silk P J, Ryall K, Mayo P, Lemay M, Grant G, Crook D, Cossé A, Fraser I, Sweeney J D, Lyons D B, Pitt D, Scarr T, Magee D (2011) Evidence for a volatile pheromone in Agrilus planipennis Fairmaire (Coleoptera: Buprestidae) that increases attraction to a host foliar volatile. Env Entomol 40: 904-916). Briefly: two microliters of serially diluted solutions (dichloromethane; DCM) of synthetic compounds were applied to filter paper strips (0.5 cm×5 cm, Whatman No. 1). The filter paper strips were placed in 14 cm long Pasteur pipettes, hereafter referred to as stimulus cartridges, after 5 min at room temperature. The stimulus dose tested was 1 μg. Male and female antennae were exposed to single 0.2 s puffs of odor-bearing air at 5 ml/s by placing the tip of a stimulus cartridge into a hole of a glass tube (0.7 cm ID×20 cm), 10 cm from the outlet and 11 cm away from the antennal preparation. Airflow through the glass tube was passed through a water bubbler and set at 10 ml/s. Each antennal preparation was tested with freshly prepared sets of stimuli cartridges using ˜6 male and ˜10 female antennae/treatment and used once for each treatment.
(§1) For the EAG results, male and female EAG responses were submitted to analysis of variance (ANOVA) and mean responses to each of the tested compounds separated using Tukey's test (P<0.05). […] Finally, in the trapping study, numbers of male and female EAB captured among the three treatments were analyzed separately by fitting generalized linear mixed effect models, with block as a random factor, to the Poisson distribution (GLMER function, R Development Core Team 2013). Chi-square tests were used to determine if a significant proportion of the variation in capture of male and female EAB was attributable to treatment. Chi-square tests were considered significant at P=0.05 or less and, if significant, the means separated using the Tukey's contrast option in the GLHT function (R Development Core Team 2013); raw data are presented as means±standard error.

[2] = Release rate of lures; format: physicochemical; conditions: 25° C.
Experimental: Traps were baited with one of three treatments: 1) (3Z)-hexenol alone; 2) 3.0 mg dose of (3Z)-lactone+(3Z)-hexenol; or 3) dodecan-12-olide+(3Z)-hexenol. The dodecan-12-olide dose was 3.0 mg or 5.0 mg. A higher dose of the analog was used to attempt to increase its effect on captures of EAB relative to the (3Z)-lactone. (3Z)-Lactone and the analog were each loaded onto rubber septa lures (Wheaton Scientific, Millville, N.J.). (3Z)-Hexenol lures were obtained from Synergy Semiochemicals. Release rates of the 3.0 mg (3Z)-lactone, 3.0 mg and 5.0 mg dodecan-12-olide lures, and (3Z)-hexenol were ˜66 μg/d, ˜60 μg/d and ˜80 μg/d. These values were determined as in Silk et al. 2011, and 50-100 mg/d (by weight loss), respectively, at 25° C. The (3Z)-lactone and analog lures were estimated to maintain sustained and almost constant release rates for a minimum of 6 wk, and thus were not replaced during the experiment. Similarly, (3Z)-hexenol lures were not replaced during the experiment.

[3] = test system: EAB; experiment: Field trapping studies, dark green sticky prism traps co-baited with (3Z)-hexenol; format: in vivo, Agrilus planipennis
Experimental: Three trapping experiments were conducted to test the effects of (3Z)-lactone and dodecan-12-olide on mean captures of EAB on dark green sticky prism traps using protocols discussed by Francese et al. in 2010 (Francese J A, Crook D J, Fraser I, Lance D A, A. J. Sawyer A J, Mastro V C (2010a) Optimization of trap color for the emerald ash borer, Agrilus planipennis (Coleoptera: Buprestidae). J Econ Entomol 103: 1235-1241) co-baited with (3Z)-hexenol. Urban street trees were used: trees were 20-40 cm in diameter, and 10-16 m in height. […] Dark green prism sticky traps (0.30×25.00×58.75 cm) (Synergy Semiochemicals Corp., Burnaby, British Columbia) were used in all field trials. Traps were spaced˜25 m apart, and lure treatments replicated in a randomized complete block design. Traps were deployed using either a limb hook over a lower to mid-canopy branch or a single rope over a mid-canopy branch. In both years, traps were checked every 2 wk and all EAB were collected, counted, and sexed.
Traps were baited with one of three treatments: 1) (3Z)-hexenol alone; 2) 3.0 mg dose of (3Z)-lactone+(3Z)-hexenol; or 3) dodecan-12-olide+(3Z)-hexenol. The dodecan-12-olide dose was 3.0 mg or 5.0 mg. A higher dose of the analog was used to attempt to increase its effect on captures of EAB relative to the (3Z)-lactone. (3Z)-Lactone and the analog were each loaded onto rubber septa lures (Wheaton Scientific, Millville, N.J.). (3Z)-Hexenol lures were obtained from Synergy Semiochemicals. […] These values were determined as in Silk et al. 2011, and 50-100 mg/d (by weight loss), respectively, at 25° C. […]
For the EAG results, male and female EAG responses were submitted to analysis of variance (ANOVA) and mean responses to each of the tested compounds separated using Tukey's test (P<0.05). […] Finally, in the trapping study, numbers of male and female EAB captured among the three treatments were analyzed separately by fitting generalized linear mixed effect models, with block as a random factor, to the Poisson distribution (GLMER function, R Development Core Team 2013). […]

[4] = test system: adult EAB; experiment: Two-choice Y-tube olfactometer bioassay; format: in vivo, Agrilus planipennis; conditions: 1 μg stimulus
Experimental: A Y-tube olfactometer (Analytical Research Systems Inc, Micanopy, Fla., USA) was used to test for short-range attraction of adult EAB to the lactones. […] Each arm was connected to a cylinder that contained the stimulus. Charcoal-filtered air was passed into each arm at a flow rate of 1.2 L/min. Treatments were 1 μg each of (3Z)-lactone, (3E)-lactone, and dodecan-12-olide. Each stimulus was diluted in dichloromethane, placed on a strip of filter paper, and given 1 min for the solvent to evaporate before being placed in the olfactometer. A filter paper with only solvent (control) was placed in the other arm of the olfactometer. The apparatus was rinsed with acetone after each treatment, and the arm attached to the test stimulus was randomized between replicates. For each trial, a single EAB (male or female) was given 10 min to choose between the two stimuli. A choice was recorded when the beetle passed a “finish line”, 7 cm beyond the branching point of each arm. […] Beetles were 8-14 d old, and 18-23 beetles were used per treatment.
as §1

Compound: O=C1/C=C/CCCCCCCCCO1 [2E-dodecan-12-olide]
electroantennogram activity with male or female EABs [1]: not significantly different from the controls

release rate of lure ([2]; by weight loss): 50000 to 100000 µg/day
Compound: CC/C=C\CCO [(3Z)-hexenol, reference compound]

Compound: O=C1C/C=C\CCCCCCCCO1 [(3Z)-lactone, (3Z)-dodecen-12-olide, reference compound]
electroantennogram activity with male or female EABs [1]: active

release rate of lure ([2]; 3.0 mg on rubber septa lure): ~60 µg/day | release rate of lure ([2]; 5.0 mg on rubber septa lure): ~80 µg/day
Compound: O=C1CCCCCCCCCCCO1 [dodecan-12-olide]
females captured vs the other two treatments ([3]; FIG. 7a, 3 mg per lure, co-baited with (3Z)-hexenol): significantly more females were captured | females captured vs (3Z)-hexenol alone ([3]; FIG. 7b, dodecan-12-olide 5 mg, (3Z)-lactone 3 mg per lure, P<0.01): more females were captured | activity relative to the natural (3Z)-lactone under comparable conditions ([3]; field trial, 3 mg per lure, male captures): about 85% | attraction of female EAB to stimulus vs solvent control ([4]; females, 10 min choice, chi-square vs 1:1, FIG. 6): attracted | attraction of male EAB to stimulus vs solvent control ([4]; males, 10 min choice, chi-square vs 1:1, FIG. 5): attracted | mean EAG responses of male and female EAB antennae ([1]; 1 μg source concentration, vs solvent control (dichloromethane), responses to the three compounds not significantly different from each other (Tukey's), FIG. 4): significantly greater than those to the solvent control | electroantennogram activity with male or female EABs [1]: comparable to the corresponding electroantennogram activity both the natural (3Z)-lactone and the (3E)-lactone analog

Compound: O=C1C/C=C/CCCCCCCCO1 [(3E)-lactone, (3E)-dodecen-12-olide, reference compound]
proportion of the beetles that chose the stimulus arm ([4]; about 25% chose the control, no-choice beetles excluded, sex not given): about 75% | electroantennogram activity with male or female EABs [1]: active

Compound: O=C1CCCCCCCCCCCCCCO1 [pentadecan-15-olide, reference compound]
electroantennogram activity with male or female EABs [1]: not significantly different from the controls
